# Test results published in paper PMC10111420, “Optimization of Host Cell-Compatible, Antimicrobial Peptides Effective against Biofilms and Clinical Isolates of Drug-Resistant Bacteria” (ACS Infectious Diseases, 2023).
# pEC50: −log10 of the molar value. “And” between values parts separate entries of the source, which are not always exact repeats. Identical values can stand only once. Where a SMILES comes first, the peptide text is derived from it. [ ]: non-standard residue; d: D form.
# What was measured:
# [1] = test system: K. pneumoniae subsp. pneumoniae (ATCC 13883)
# Protocol: All peptide variants were synthesized and purified as described previously.[5],[7] They were tested in broth dilution in the presence and absence of 1 × 10^9 human RBCs per mL, 20% of the concentration in human blood, against Escherichia coli, K. pneumoniae, and Staphylococcus aureus. […] The toxicity of the variants was tested by measuring hemolysis as well as cytotoxicity against human WI-38 fibroblast cells.
# Subcultures, prepared by inoculating 25 mL of fresh tryptic soy broth (TSB) with 200 μL of an overnight culture, were grown to log phase (OD600 = 0.3–0.6), after which cell counts were determined by measuring the OD600 (1.0 = 5 × 10^8 CFU/mL for E. coli, 4 × 10^8 CFU/mL for K. pneumoniae, 4 × 10^8 CFU/mL for P. aeruginosa, 1.5 × 10^8 CFU/mL for S. aureus). Bacterial cells were diluted to appropriate concentrations in TSB. We used the following clinical bacterial isolates of Klebsiella pneumoniae in this study: Strains KP6, KP46, NDM-1, KP396, and KP398 have been previously described.[43] ST58 strains C2, C3, and I2 are also described.[41] […] MRSA, […] S. aureus strain, is SAP400, a USA400 strain of community-acquired MRSA. […] The second independent set of K. pneumoniae isolates are previously described.[20],[21]
# The antibiotics were serially diluted by a factor of 2:3 horizontally across 96-well plates from Corning, 25 μL per well. One column was reserved for controls. For the assays performed in the presence of RBC, type O+ human RBCs at 0 or 2.5 × 10^9 cells/mL were added in 50 μL aliquots to all wells. Following a 30-min incubation, 50 μL of TSB, inoculated with 5 × 10^5 CFU/mL, was added to all wells, and plates were incubated overnight at 37 °C. Following overnight incubation at 37 °C, the OD600 was measured (values of less than 0.1 were considered sterilized). To assess bacterial growth in the assays with RBC, the OD600 was measured after a second-day inoculation with 10 μL of solution from the original plate added to 100 μL of sterile TSB followed by overnight incubation.
# Experiments were repeated four to eight times independently, with pairs of replicate measurements on each 96-well plate. After overnight growth, optical densities were measured at 660 nm and the sterilized wells were identified by having O.D. < 0.08. Nonsterilized wells were nearly opaque with OD > 0.6. For each measurement, we recorded the largest dilution that sterilized the bacteria. Statistics are done on dilution numbers, rather than calculated concentrations, because only the former have normal distributions.
# human RBCs = format: cell-based
# Protocol: Human O+ erythrocytes were obtained from Interstate Blood Bank, Inc. Red blood cells were subjected to four or more cycles of centrifugation at 1000g with resuspension in fresh PBS. Following the final wash step, the supernatant was clear and colorless. RBC concentration was determined using a standard hemocytometer.
# Peptide was serially diluted in PBS starting at a concentration of 100 μM. The final volume of peptide in each well was 50 μL. To each well, 50 μL of RBCs in PBS at 2 × 10^8 cells/mL was added. As a positive lysis control, 1% Triton was used. The mixtures were incubated at 37 °C for 1 h, after which they were centrifuged at 1000g for 5 min. After centrifugation, 10 μL of supernatant was transferred to 90 μL of DI H2O in a fresh 96-well plate. The absorbance of released hemoglobin at 410 nm was recorded, and the fractional hemolysis was calculated based on the 100 and 0% lysis controls. At least three independent experiments were performed. Results shown are averages.
# [2] = test system: WI-38 human fibroblast cells; assay: in vitro; format: cell-based
# Protocol: The day before cytotoxicity experiments, the 10,000 cells/well were plated in a 96-well tissue-culture plate. […] To perform the cytotoxicity assay, media was removed from the wells and replaced with peptide solutions. […] The plate was read for SYTOX fluorescence every 5 min for an hour with an excitation wavelength of 504 nm and an emission wavelength of 523 nm. Percent cytotoxicity was calculated at 60 min using the 100 and 0% lysis controls. At least three independent experiments were averaged.
# [3] = test system: P. aeruginosa PAO1 (EYFP) pellicle biofilms; assay: Pellicle biofilm assay, viable cell enumeration; format: cell-based, Pseudomonas aeruginosa; conditions: 2 μM, 48 h pellicle biofilm, 24 h challenge, dispersing and counting viable cells
# Protocol: Here, we directly compare the antibiofilm activity of D-CONGA and D-CONGA-Q7 using a mature pellicle biofilm of P. aeruginosa.[22] […] To determine the susceptibility of pellicle biofilms to D-CONGA and D-CONGA-Q7, we cultured 2-day-old biofilms as described in the Methods section. The coverslip-adhered biofilms were exposed to challenge solution for 24 h prior to staining with SYTOX red and imaging with CLSM for EYFP, which indicates live cells, and for SYTOX Red which stains dead cells and extracellular DNA. […] The % cell survival was quantitated in two ways: (i) COMSTAT was used to compare biofilm biomass in CLSM images by estimating the biofilm biovolume, which is calculated as the overall volume/substratum area (μm^3/μm^2).[24],[25] […] (ii) The biofilms were dispersed mechanically for subsequent enumeration of viable cells such that % survival is expressed as the ratio (CFUuntreated biofilm/CFUtreated biofilm).
# The susceptibility of biofilm-embedded P. aeruginosa cells to the antimicrobial peptides was studied as reported previously[23] using a P. aeruginosa PAO1 strain expressing enhanced yellow fluorescent protein (EYFP).[22] The EYFP-expressing P. aeruginosa strain was routinely grown in Pseudomonas Isolation (PI) media (20 g/L peptone, 0.3 g/L, MgCl2·6H2O, 10 g/L, K2SO4, 25 mg/L irgasan, and 20 mL/L glycerol, pH 7.0). […] Iron supplementation was carried out by addition of a small volume of filter-sterilized 10 mM (NH4)2Fe(SO4)2 (pH ∼ 2.0) solution.
# In brief: Starter cultures (5 mL PI media supplemented with 10 μM Fe) were grown (14 h) from a single-colony shaking (220 rpm) at 37 °C. To grow the pellicle biofilms, starter cultures were diluted to OD600 = 0.001 in 4 mL of PI media supplemented with 20 μM Fe, placed in 35 × 10 mm Petri dishes, and incubated statically at 30 °C for 48 h. The pellicles were harvested using circular (1.5 cm diameter) glass coverslips by gently allowing the surface of a coverslip to contact the biofilm at the air–liquid interface. […]
# P. aeruginosa = conditions: cited from earlier work
molecule,measurement,setting,value
CC(C)C[C@@H](NC(=O)[C@@H](CCCNC(=N)N)NC(=O)[C@@H](CCCNC(=N)N)NC(=O)[C@@H](C)NC(=O)[C@@H](Cc1c[nH]c2ccccc12)NC(=O)[C@@H](CCCNC(=N)N)NC(=O)[C@H](N)CCCNC(=N)N)C(=O)N[C@H](C)C(=O)N[C@H](Cc1ccccc1)C(=O)N[C@H](C)C(=O)N[C@H](Cc1ccccc1)C(=O)N[C@H](CCCNC(=N)N)C(N)=O [D-CONGA-ΔR13] (H-[dR][dR][dW][dA][dR][dR][dL][dA][dF][dA][dF][dR]-NH2; N-terminus and C-terminus assumed),"MIC in Broth Dilution, K. Pneumoniae",[1],2.1 µM
same,Hemolysis at 100 μM (fractional hemolysis),human RBCs,0.03
same,pEC50,[2],3.52
colistin,Reduction of biofilm CFU,[3],no detectable activity
same,reported MIC,P. aeruginosa,1 μg/mL and 0.79 μM
